Experiments:
GST-tagged Cn [1] = assay: PEPperPRINT peptide microarray binding assay with GST-tagged Cn
How it was run: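 Qualitative binding: peptides printed on a PEPperPRINT microarray were incubated overnight at 4 °C with 1 mg/ml GST-tagged Cn, then detected with Alexa-Fluor 647 anti-GST antibody. Log fluorescence was baseline-corrected, averaged over duplicate spots, Z-normalized and averaged across five repeats.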

GST-tagged Cn [2] = assay: as above; settings: max over the duplicate spots (Location on chip)
[3] = GST-tagged Cn, mean over the duplicate spots (Location on chip)
[4] = GST-tagged Cn, max over the chip locations
[5] = GST-tagged Cn, mean over the chip locations
[6] = max over the spots listed under Location on chip
[7] = mean over the spots listed under Location on chip
[8] = GST-tagged Cn, max over the spots on the chip (two locations)
[9] = GST-tagged Cn, mean over the spots on the chip (two locations)
[10] = GST-tagged Cn, max over the spots named in Location on chip
[11] = GST-tagged Cn, mean over the spots named in Location on chip
[12] = max over the chip locations listed for the peptide (two spots)
[13] = mean over the chip locations listed for the peptide (two spots)
[14] = GST-tagged Cn, max over the chip spots listed under Location on chip
[15] = GST-tagged Cn, mean over the chip spots listed under Location on chip

| Sequence | Chip Fluorescence (mean) (GST-tagged Cn [1]; [3]) | Chip Fluorescence (max) (GST-tagged Cn [2]) | also measured |
| --- | --- | --- | --- |
| GNDDCPEVVVHPPEED [SeqRBMlowT_7697] | 0.9366 | 2.095 |  |
| TFWANPQITITLAELD [SeqRBMlowT_7358] | 0.7622 | 2.261 |  |
| HCRFEWPFGFSMIRYP [Seqrandom_9994] | -1.666 | 2.458 |  |
| RAYMNPSVCFTDGGAR [SeqRBM_6787] | 0.3113 | 1.921 |  |
| TFWTNPQFKFRLEDPD [SeqRBMlowT_7471] | 0.6593 | 2.466 |  |
| SDVAQQCLPSQHWSCW [Seqrandom_9997] | 0.2486 | 2.401 |  |
| GFETTPSIVVHVCEED [SeqRBMlowT_1939] | 0.4497 | 2.448 |  |
| PSLYENALGMESFTIS [SeqRBMlowT_2807] | -0.3855 | 2.474 |  |
| HSKLIPKLSIQSPVEH [SeqRBMlowT_3447] | 0.373 | 2.177 |  |
| KAYMCPFMQFIDGGRR [SeqRBMlowT_502] | -0.1535 | 2.385 |  |
| LNDEIPEVRLNIISAL [SeqRBMlowT_4170] | -0.4845 | 2.3229 |  |
| KAYMNPFMQFIDGGRK [SeqRBMlowT_6686] | 0.8271 | 2.02 |  |
| PSLYINALGIESFTLS [SeqRBMlowT_6967] | 0.7051 | 2.037 |  |
| STASLPSFNFSFLTSS [SeqNUP153_Antrostomus_carolinensis] | -0.1064 | 2.477 |  |
| TFWTNPQITVTLAEDD [SeqRBMlowT_3250] | 1.296 | 2.572 |  |
| FTMKFAWALPQCYVHC [Seqrandom_9941] | 0.4694 | 2.049 |  |
| TFWTNPQYRIKLEEVD [SeqRBMlowT_627] | -1.639 | 1.99 |  |
| TFMMNPQYRLYKSVSP [SeqRBM_6553] | 0.3935 | 2.027 |  |
| RNPGSPVLVLEGHSAA [SeqYPL247C_Zygosaccharomyces_parabailii] | -0.2767 | 2.128 |  |
| KAYMCPYMQFIAGGRK [SeqRBM_8989] | 0.7869 | 1.932 |  |
| KADYTISLILHYDAIE [Seqshuffled_9660] | 0.7325 | 1.911 |  |

| Sequence | Chip Fluorescence (mean) (GST-tagged Cn [1]; [3]) | Chip Fluorescence (max) (GST-tagged Cn [2]) | also measured |
| --- | --- | --- | --- |
| TFWTNPQFRIKLEEPD [SeqRBMlowT_8] | -0.1106 | 2.218 |  |
| HDLQCVINLHENACKT [Seqrandom_9996] | -0.1329 | 2.151 |  |
| GNKEFSPLNVEGLSGN [Seqshuffled_9463] | 0.833 | 2.018 |  |
| RMYINPFVQFIDGGNR [SeqSFB3_Mycena_chlorophos] | -0.09268 | 2.0812 |  |
| KELANLRVTPPDNGTL [SeqRBM_2710] | 0.2344 | 2.355 |  |
| ADEATPSIVVHVCELP [SeqRBMlowT_118] | 0.5506 | 2.544 |  |
| TFWTNPQYRITLEDPD [SeqRBMlowT_604] | -0.2036 | 2.534 |  |
| TFWTNPQFKVSLEEPD [SeqRBMlowT_97] | 0.2931 | 2.43 |  |
| STSSLPTFSFSSPLSS [SeqRBMlowT_2357] | 0.4296 | 2.106 |  |
| PNGSNPETVIKPDWTE [SeqRBM_275] | 0.6822 | 1.983 |  |
| YRQAVRFEMPLTACAP [Seqrandom_9969] | 0.771 | 2.355 |  |
| HIIIVWAVSEVKYVQL [Seqrandom_9992] | 0.6897 | 1.914 |  |
| ADETQPGIVVHVCELP [SeqRBMlowT_352] | 0.6468 | 2.166 |  |
| FQTDAPTIPIDQAPIC [SeqRBM_9788] | 0.3576 | 1.993 |  |
| KKMSPPCISIDPAPNN [SeqRBMlowT_7656] |  |  | Chip Fluorescence (max) (GST-tagged Cn [1]; [4]): 0.1833; Chip Fluorescence (mean) (GST-tagged Cn [1]; [5]): -1.098 |
| TFWTNPQFKLKLLDPD [SeqRBMlowT_4269] |  |  | Chip Fluorescence (max) (GST-tagged Cn [1]; [6]): 3.1491; Chip Fluorescence (mean) (GST-tagged Cn [1]; [7]): 0.8579 |
| KKMAPPCINIDPAPTS [SeqRBMlowT_307] |  |  | Chip Fluorescence (max) (GST-tagged Cn [1]; [4]): 0.2085; Chip Fluorescence (mean) (GST-tagged Cn [1]; [5]): -1.259 |
| ADGAGVGIVITVTEAE [SeqRBMlowT_1411] |  |  | Chip Fluorescence (max) (GST-tagged Cn [1]; [8]): 1.31; Chip Fluorescence (mean) (GST-tagged Cn [1]; [9]): -0.2973 |
| GDYMQGTLQAETGEHD [Seqshuffled_9624] |  |  | Chip Fluorescence (max) (GST-tagged Cn [1]; [10]): 1.494; Chip Fluorescence (mean) (GST-tagged Cn [1]; [11]): 0.7951 |
| RNPGTPLLELKGHAAS [SeqRBMlowT_8729] |  |  | Chip Fluorescence (max) (GST-tagged Cn [1]; [4]): -0.2859; Chip Fluorescence (mean) (GST-tagged Cn [1]; [5]): -0.9089 |
| TFWTNPQFKVSLEEED [SeqRBMlowT_1125] |  |  | Chip Fluorescence (max) (GST-tagged Cn [1]; [6]): 2.918; Chip Fluorescence (mean) (GST-tagged Cn [1]; [7]): 1.097 |

| Sequence | Chip Fluorescence (mean) (GST-tagged Cn [1]; [3]) | Chip Fluorescence (max) (GST-tagged Cn [2]) | also measured |
| --- | --- | --- | --- |
| ADEASPRIVITPPELP [SeqRBMlowT_1222] |  |  | Chip Fluorescence (max) (GST-tagged Cn [1]; [12]): 3.902; Chip Fluorescence (mean) (GST-tagged Cn [1]; [13]): 0.5727 |
| TFWTNPQYRLKLEDVD [SeqRBMlowT_929] |  |  | Chip Fluorescence (max) (GST-tagged Cn [1]; [12]): 6.02; Chip Fluorescence (mean) (GST-tagged Cn [1]; [13]): 1.294 |
| PAFFCEGFTIQADSLD [Seqshuffled_9825] |  |  | Chip Fluorescence (max) (GST-tagged Cn [1]; [8]): 1.294; Chip Fluorescence (mean) (GST-tagged Cn [1]; [9]): 0.4829 |
| TFWTNPQIKLSLTEKD [SeqCAPN11_Camelus_ferus] |  |  | Chip Fluorescence (max) (GST-tagged Cn [1]; [6]): 3.072; Chip Fluorescence (mean) (GST-tagged Cn [1]; [7]): 1.377 |
| LEAAPPDPDRKPPNII [Seqshuffled_9311] |  |  | Chip Fluorescence (max) (GST-tagged Cn [1]; [8]): 1.299; Chip Fluorescence (mean) (GST-tagged Cn [1]; [9]): -0.4919 |
| RNPGTFPLELEGHKKQ [SeqRBMlowT_8768] |  |  | Chip Fluorescence (max) (GST-tagged Cn [1]; [6]): 3.224; Chip Fluorescence (mean) (GST-tagged Cn [1]; [7]): 1.049 |
| LATQVPTFEITSPNSA [SeqNRG2_Pan_troglodytes] |  |  | Chip Fluorescence (max) (GST-tagged Cn [1]; [4]): 0.1795; Chip Fluorescence (mean) (GST-tagged Cn [1]; [5]): -0.588 |
| PPPGTPTRIGQHMAPS [SeqRBM_7926] |  |  | Chip Fluorescence (max) (GST-tagged Cn [1]; [4]): -0.5504; Chip Fluorescence (mean) (GST-tagged Cn [1]; [5]): -1.127 |
| RAYINPFMQFTDDGRR [SeqRBMlowT_7881] |  |  | Chip Fluorescence (max) (GST-tagged Cn [1]; [14]): 0.7684; Chip Fluorescence (mean) (GST-tagged Cn [1]; [15]): -0.05563 |
| TFWSNPQFKIKLEEED [SeqRBMlowT_8507] |  |  | Chip Fluorescence (max) (GST-tagged Cn [1]; [8]): 1.116; Chip Fluorescence (mean) (GST-tagged Cn [1]; [9]): -0.2464 |
| RTPGTFPLTLKGHKKQ [SeqRBMlowT_6382] |  |  | Chip Fluorescence (max) (GST-tagged Cn [1]; [10]): 1.729; Chip Fluorescence (mean) (GST-tagged Cn [1]; [11]): 0.4598 |
| HVSSSPDIVITPTQHR [SeqRBMlowT_1399] |  |  | Chip Fluorescence (max) (GST-tagged Cn [1]; [4]): 0.3374; Chip Fluorescence (mean) (GST-tagged Cn [1]; [5]): -0.4706 |
| RQGAGPILVLEGHWDA [SeqRBM_4400] |  |  | Chip Fluorescence (max) (GST-tagged Cn [1]; [6]): 3.288; Chip Fluorescence (mean) (GST-tagged Cn [1]; [7]): -1.788 |
| VSTDAPHSTRNDSGGP [SeqRBM_8532] |  |  | Chip Fluorescence (max) (GST-tagged Cn [1]; [8]): 0.9892; Chip Fluorescence (mean) (GST-tagged Cn [1]; [9]): -0.732 |
| PKMAPPCINIDFAPTN [SeqRBMlowT_319] |  |  | Chip Fluorescence (max) (GST-tagged Cn [1]; [8]): 1.2058; Chip Fluorescence (mean) (GST-tagged Cn [1]; [9]): -0.8596 |
| GAPGTPSRWGTPLAPS [SeqRBM_851] |  |  | Chip Fluorescence (max) (GST-tagged Cn [1]; [10]): 1.622; Chip Fluorescence (mean) (GST-tagged Cn [1]; [11]): 0.7552 |
| LTWTSNDMKLHLSGVS [Seqshuffled_9827] |  |  | Chip Fluorescence (max) (GST-tagged Cn [1]; [14]): 0.7935; Chip Fluorescence (mean) (GST-tagged Cn [1]; [15]): -0.8344 |
| PSDDQPGIVVHPCEED [SeqRBMlowT_365] |  |  | Chip Fluorescence (max) (GST-tagged Cn [1]; [10]): 1.806; Chip Fluorescence (mean) (GST-tagged Cn [1]; [11]): 0.4598 |
| RAYINPFMMFRSGGNK [SeqSFB3_Cordyceps_militaris] |  |  | Chip Fluorescence (max) (GST-tagged Cn [1]; [14]): 0.6899; Chip Fluorescence (mean) (GST-tagged Cn [1]; [15]): -0.6148 |
| TFWINPQFKVRLDEID [SeqCAPN11_Boiga_irregularis] |  |  | Chip Fluorescence (max) (GST-tagged Cn [1]; [10]): 1.765; Chip Fluorescence (mean) (GST-tagged Cn [1]; [11]): 0.8018 |
| KKMSPPCIDVHPLDSA [SeqRBM_2282] |  |  | Chip Fluorescence (max) (GST-tagged Cn [1]; [6]): 2.64; Chip Fluorescence (mean) (GST-tagged Cn [1]; [7]): 0.293 |

From publication PMC9928118, “Funneling modulatory peptide design with generative models: Discovery and characterization of disruptors of calcineurin protein-protein interactions” (PLOS Computational Biology, 2023)
